In ChEMBL document CHEMBL1126463, “Thiol-induced crosslinking of human blood proteins: implications for tumor immunity” (Bioorg Med Chem Lett, 1992):

assay: Effect of compound on gelation time of human serum induced by dithiothreitol (DTT); assay type: ADME

Structure (SMILES)	Inhibitory concentration
C=CCSS/C=C/C[S+]([O-])CC=C (stereo not drawn) [AJOENE]	10 mM
N[C@@H](CS)C(=O)O [CYSTEINE]	> 200 mM
O=C1OC(C(O)CO)C(=O)C1=O (stereo not drawn) [DEHYDROASCORBIC ACID]	20 mM
C=CCSSCC=C [DIALLYLDISULFIDE]	20 mM

The next lines start with the values.

Inhibitory concentration	Structure (SMILES)
20 mM	NC(CSSCC(N)C(=O)O)C(=O)O (stereo not drawn)
> 100 mM	O=C1O[C@H]([C@@H](O)CO)C(O)=C1O [ASCORBIC ACID]
> 200 mM	C=CCSCC=C [DIALLYL SULFIDE]
20 mM	CC(=O)C=O [METHYLGLYOXAL]
